Laboratory results published in ChEMBL document CHEMBL4312017, “Synthesis and discovery of new compounds bearing coumarin scaffold for the treatment of pulmonary fibrosis” (Eur J Med Chem, 2020).
The source made the active and inactive calls. The rule behind the calls is not given here.

Experiments:
Mus musculus [1] = assay: Antifibrotic activity against BLM-induced C57BL/6 mouse pulmonary fibrosis model assessed as decrease in bronchiolar epithelial cell shedding at 50 mg/kg, po administered for 28 days and measured on day 14 and 28 by HE staining based fluorescence microscopy; assay type: functional, organism-based
Mus musculus [2] = assay: Antifibrotic activity against BLM-induced C57BL/6 mouse pulmonary fibrosis model assessed as reduction in total white blood cells in BALF at 50 mg/kg, po administered for 28 days and measured on day 28; assay type: functional, organism-based
Mus musculus [3] = assay: Antifibrotic activity against BLM-induced C57BL/6 mouse pulmonary fibrosis model assessed as increase in time for reduction of alveoli at 50 mg/kg, po administered for 28 days and measured on day 14 and 28 by HE staining based fluorescence microscopy; assay type: functional, organism-based
[4] = Oral bioavailability in Sprague-Dawley rat 10 mg/kg measured upto 24 hrs; assay type: ADME, organism-based; settings: in vivo
Mus musculus [5] = assay: Antifibrotic activity against BLM-induced C57BL/6 mouse pulmonary fibrosis model assessed as reduction in neutrophils in BALF at 50 mg/kg, po administered for 28 days and measured on day 28; assay type: functional, organism-based
NRK-49F [6] = assay: Inhibition of TGF-beta-induced collagen accumulation in rat NRK-49F cells at 10 uM incubated for 2 days by PSR staining based microscopic analysis relative to control; assay type: functional; settings: 48 h
Mus musculus [7] = assay: Antifibrotic activity against BLM-induced C57BL/6 mouse pulmonary fibrosis model assessed as decrease in bronchioles inflammatory cell infiltration at 50 mg/kg, po administered for 28 days and measured on day 14 and 28 by HE staining based fluorescence microscopy; assay type: functional, organism-based
Mus musculus [8] = assay: Antifibrotic activity against C57BL/6 mouse pulmonary fibrosis model assessed as reduction in bleomycin-iduced hydroxyproline level at 50 mg/kg, po administered for 28 days and measured on day 14 and 28 by spectrophotometry; assay type: functional, organism-based
Mus musculus [9] = assay: Antifibrotic activity against BLM-induced C57BL/6 mouse pulmonary fibrosis model assessed as decrease in destruction alveolar structure at 50 mg/kg, po administered for 28 days and measured on day 14 and 28 by HE staining based fluorescence microscopy; assay type: functional, organism-based
Mus musculus [10] = assay: Antifibrotic activity against BLM-induced C57BL/6 mouse pulmonary fibrosis model assessed as reduction in lymphocytes in BALF at 50 mg/kg, po administered for 28 days and measured on day 28; assay type: functional, organism-based
Mus musculus [11] = assay: Antifibrotic activity against BLM-induced C57BL/6 mouse pulmonary fibrosis model assessed as decrease in perivascular inflammatory cell infiltration at 50 mg/kg, po administered for 28 days and measured on day 14 and 28 by HE staining based fluorescence microscopy; assay type: functional, organism-based
NRK-49F [12] = assay: Inhibition of TGF-beta-induced collagen accumulation in rat NRK-49F cells incubated for 2 days by PSR staining based microscopic analysis; assay type: functional, cell-based; settings: for IC50: 48 h
Mus musculus [13] = assay: Antifibrotic activity against BLM-induced C57BL/6 mouse pulmonary fibrosis model assessed as decrease in bronchial epithelial vacuolar degeneration at 50 mg/kg, po administered for 28 days and measured on day 14 and 28 by HE staining based fluorescence microscopy; assay type: functional, organism-based
[14] = Cytotoxicity against rat NRK-49F cells assessed as cell viability at 10 uM incubated for 72 hrs by MTT assay; assay type: cell-based; settings: read-out: Activity
NIH3T3 = assay: Inhibition of TGF-beta-induced […] migration in mouse NIH/3T3 cells at 1 uM incubated for 24 hrs by Transwell assay; assay type: functional, cell-based

Structure (SMILES) | inhibition at 10 µM (NRK-49F [6]) [%] | viability at 72 h, 10 µM [14] [%] | also measured
COC(=O)c1ccc2c(c1)NC(=O)/C2=C(\Nc1ccc(N(C)C(=O)CN2CCN(C)CC2)cc1)c1ccccc1 [NINTEDANIB] | 95.5 | 40 | Activity (Mus musculus [1]): Active; Activity (Mus musculus [2]): Active; Activity (Mus musculus [3]): Active; bioavailability [4]: 12%; Activity (Mus musculus [5]): Active; Activity (Mus musculus [7]): Active; Activity (Mus musculus [8]): inactive; Activity (Mus musculus [9]): Active; Activity (Mus musculus [10]): Active; Activity (Mus musculus [11]): Active; IC50 (NRK-49F [12]): 1.1 µM; Activity (Mus musculus [13]): Active
O=C(CN1CCOCC1)Nc1ccc(Nc2cc(=O)oc3ccccc23)cc1F | 34.5 | 72.3 | –
CN1CCN(CC(=O)Nc2ccc(Nc3cc(=O)oc4ccccc34)cc2F)CC1 | 36.8 | 78.1 | –
CN1CCN(CC(=O)Nc2ccc(Nc3cc(=O)oc4ccccc34)cc2)CC1 | 26.8 | 87.5 | –
O=C(CN1CCCC1)Nc1ccc(Nc2cc(=O)oc3ccc([N+](=O)[O-])cc23)cc1 | 17.9 | 45.3 | –
COc1ccc2c(Nc3ccc(NC(=O)CN4CCCC4)cc3)cc(=O)oc2c1 | 15.7 | 52 | –
O=C(CN1CCCC1)Nc1ccc(Oc2cc(=O)oc3ccccc23)cc1 | 18.8 | 82.9 | –
O=C(CN1CCCC1)Nc1ccc(Nc2cc(=O)oc3ccccc23)cc1 | 12.4 | 62 | –
C[C@H]1CCCN(CC(=O)Nc2ccc(Nc3cc(=O)oc4ccccc34)cc2)C1 | 80.2 | 91.5 | inhibition (NIH3T3): Active; inhibition (NRK-49F [12]): Dose-dependent effect; IC50 (NRK-49F [12]): 3.96 µM
COc1ccc2c(Nc3ccc(NC(=O)CN4CCOCC4)cc3)cc(=O)oc2c1 | 72.9 | 89.1 | –
O=C(CN1CCOCC1)Nc1ccc(Nc2cc(=O)oc3ccc([N+](=O)[O-])cc23)cc1 | 31.7 | 23.1 | –
CN1CCN(CC(=O)Nc2ccc(Oc3cc(=O)oc4ccccc34)cc2)CC1 | 24 | 83.6 | –
COc1ccc2c(Oc3ccc(NC(=O)CN4CCC[C@H](C)C4)cc3)cc(=O)oc2c1 | 32.6 | 90.5 | –
O=C(CN1CCCCC1)Nc1ccc(Nc2cc(=O)oc3ccccc23)cc1F | 11.3 | 67.7 | –
O=C(CN1CCOCC1)Nc1ccc(Nc2cc(=O)oc3ccccc23)cc1 | 41.8 | 75.2 | –
O=C(CN1CCCC1)Nc1ccc(Nc2cc(=O)oc3ccccc23)cc1F | 33.3 | 74.3 | –
O=C(CN1CCOCC1)Nc1ccc(Oc2cc(=O)oc3ccccc23)cc1 | 34.6 | 97 | –
C[C@H]1CCCN(CC(=O)Nc2ccc(Oc3cc(=O)oc4ccccc34)cc2)C1 | 75.3 | 98 | –
COc1ccc2c(Oc3ccc(NC(=O)CN4CCCC4)cc3)cc(=O)oc2c1 | 8.07 | 93.3 | –
C[C@H]1CCCN(CC(=O)Nc2ccc(Nc3cc(=O)oc4ccccc34)cc2F)C1 | 21.9 | 88.5 | –
COc1ccc2c(Oc3ccc(NC(=O)CN4CCOCC4)cc3)cc(=O)oc2c1 | 78.3 | 96.5 | inhibition (NIH3T3): Active; inhibition (NRK-49F [12]): Dose-dependent effect; IC50 (NRK-49F [12]): 3.71 µM
COc1ccc2c(Nc3ccc(NC(=O)CN4CCC[C@H](C)C4)cc3)cc(=O)oc2c1 | 72.7 | 90.1 | –
COc1ccc2c(Oc3ccc(NC(=O)CN4CCCCC4)cc3)cc(=O)oc2c1 | 73.5 | 90.4 | –
CN1CCN(CC(=O)Nc2ccc(Nc3cc(=O)oc4ccc([N+](=O)[O-])cc34)cc2)CC1 | 22.3 | 32.1 | –
C[C@H]1CCCN(CC(=O)Nc2ccc(Nc3cc(=O)oc4ccc([N+](=O)[O-])cc34)cc2)C1 | 28.7 | 17.8 | –
O=C(CN1CCCCC1)Nc1ccc(Nc2cc(=O)oc3ccc([N+](=O)[O-])cc23)cc1 | 15.4 | 20.3 | –
COc1ccc2c(Nc3ccc(NC(=O)CN4CCN(C)CC4)cc3)cc(=O)oc2c1 | 80.2 | 87.2 | inhibition (NIH3T3): Active; inhibition (NRK-49F [12]): Dose-dependent effect; IC50 (NRK-49F [12]): 4.35 µM
COc1ccc2c(Nc3ccc(NC(=O)CN4CCCCC4)cc3)cc(=O)oc2c1 | 74.5 | 41.3 | –
COc1ccc2c(Oc3ccc(NC(=O)CN4CCN(C)CC4)cc3)cc(=O)oc2c1 | 65.4 | 95.6 | –
O=C(CN1CCCCC1)Nc1ccc(Nc2cc(=O)oc3ccccc23)cc1 | 75.2 | 43.6 | –
